The results in this text go back to patent EP0565634B1, “ANGIOTENSIN II RECEPTOR BLOCKING COMPOSITIONS” (SMITHKLINE BEECHAM CORPORATION, priority 1990, dated 1992).

Like-named read-outs stand apart in the source and are kept apart here.

The target of assay [1] is vascular angiotensin II receptors. Nature of the assay: Radioligand binding assay, displacement of 125I-angiotensin II. The settings on record: particular fraction from rat mesenteric arteries, 80 pM 125I-angiotensin II, 1 hour at 25°C. On the procedure: (§1) Angiotensin II antagonist activity of the compounds of Formula (I) is assessed by in vitro and in vivo methods. In vitro antagonist activity is determined by the ability of the compounds to compete with ^125I-angiotensin II for binding to vascular angiotensin II receptors and by their ability to antagonize the contractile response to angiotensin II in the isolated rabbit aorta. In vivo activity is evaluated by the efficacy of the compounds to inhibit the pressor response to exogenous angiotensin II in conscious rats and to lower blood pressure in a rat model of renin dependent hypertension.
The radioligand binding assay is a modification of a method previously described in detail (Gunther et al., Circ. Res. 47:278, 1980). A particular fraction from rat mesenteric arteries is incubated in Tris buffer with 80 pM of ^125I-angiotensin II with or without angiotensin II antagonists for 1 hour at 25°C. The incubation is terminated by rapid filtration and receptor bound ^125I-angiotensin II trapped on the filter is quantitated with a gamma counter. The potency of angiotensin II antagonists is expressed as the IC50 which is the concentration of antagonist needed to displace 50% of the total specifically bound angiotensin II. The IC50 of (E)-3-[2-n-butyl-1-{(4-carboxyphenyl)methyl}-1H-imidazol-5-yl]-2-(2-thienyl)methyl-2-propenoic acid is about 1.0 nM.
Background: In a radioligand displacement assay an active substance lowers the binding of a labelled ligand.

For assay [2], the system named is pressor response to exogenous angiotensin II. Nature of the assay: Inhibition of pressor response to angiotensin II in conscious rats. Format: in vivo. Particulars: Rattus norvegicus, intravenous injections of 250 mg/kg angiotensin II, read-out: IC50 (dose needed to produce 50% inhibition of the control response to angiotensin II). On the procedure: as §1
Rats are prepared with indwelling femoral arterial and venous catheters and a stomach tube (Gellai et al., Kidney Int. 15:419, 1979). Two to three days following surgery the rats are placed in a restrainer and blood pressure is continuously monitored from the arterial catheter with a pressure transducer and recorded on a polygraph. The change in mean arterial pressure in response to intravenous injections of […] angiotensin II is compared at various time points prior to and following the administration of the compounds intravenously or orally at doses of 0.1 to 300 mg/kg. The dose of compound needed to produce 50% inhibition of the control response to angiotensin II (IC50) is used to estimate the potency of the compounds.

Another assay deals with mean arterial pressure. The assay can be described thus: Antihypertensive activity in renal artery ligated, renin-dependent hypertensive conscious rats. Format: in vivo. Particulars: Rattus norvegicus, po, 192 h, orally, seven to eight days following ligation, read-out: IC30 (dose needed to reduce mean arterial pressure by 30 mmHg). On the procedure: as §1
The antihypertensive activity of the compounds is measured by their ability to reduce mean arterial pressure in conscious rats made renin-dependent hypertensive by ligation of the left renal artery (Cangiano et al;., J. Pharmacol. Exp. Ther. 208:310, 1979). Renal artery ligated rats are prepared with indwelling catheters as described above. Seven to eight days following renal artery ligation, the time at which plasma renin levels are highest, the conscious rats are placed in restrainers and mean arterial pressure is continuously recorded prior to and following the administration of the compounds intravenously or orally. The dose of compound needed to reduce mean arterial pressure by 30 mmHg (IC30) is used as an estimate of potency. […]

One may read the IC50 as the midpoint of a concentration-inhibition curve. A low value points to greater potency. Compound `CCCCc1ncc(/C=C(\Cc2cccs2)C(=O)O)n1Cc1ccc(C(=O)O)cc1` [(E)-3-[2-n-butyl-1-{(4-carboxyphenyl)methyl}-1H-imidazol-5-yl]-2-(2-thienyl)methyl-2-propenoic acid] registered an IC50 in assay [1] of approximately 1 nM. Further, the ED50 was approximately 0.1 mg/kg in assay [2] (i.v.) and approximately 5.5 mg/kg in assay [2] (po, orally). The ED (30 mmHg) in the assay on mean arterial pressure is approximately 10 mg/kg.
